# Patent US10092657B2, “Opsonized β-glucan preparations and methods” (Biothera, Inc., priority 2011, dated 2018)
# Tests used:
# human monocytes = assay: Binding studies on the role of complement proteins in serum, monocytes; type: cell-based
# Description: Heat-inactivated (HI) serum was prepared by incubating serum in a 56° C. water bath for 30 minutes. […] Treatment of serum with methylamine (MA) was done by incubating serum with 0.67% of methylamine for 2.5 hours at 37° C., followed by three washes with DPBS using Amicon centrifugal filter unit with a 3K MW cut-off (Millipore, Billerica, Mass.). DPBS-treated serum was prepared in the same manner and used as control serum for MA-treated serum. For blocking of factor D in the serum, 166-32 at concentration 20 μg/mL was incubated with serum on ice for 30 minutes, and then used for binding studies. For binding experiments in the presence of EGTA or MgEGTA, serum was incubated with 10 mM EGTA with or without 10 mM MgCl2 for 10 minutes at room temperature. The untreated and EGTA/MgEGTA-treated serum was then used to pre-treat PGG and perform binding studies as described earlier.
# human neutrophils = assay: iC3b staining on PGG β-glucan-bound neutrophils (flow cytometry, confocal microscopy); type: cell-based
# Description: Binding of PGG β-glucan to neutrophils and PBMC was done as above. iC3b deposition on these cells was detected by staining with a neo-epitope specific anti-iC3b Ab and PE-conjugated goat anti-mouse IgG and analyzing by flow cytometry.
# Enriched neutrophils, resuspended at 1×10^6 cells/mL in either RPMI supplemented with 20% serum or heat-inactivated serum, were mixed with PGG β-glucan before being applied to a 10 mm glass cover slip placed in the well of a 24-well plate. The plate was incubated in a 37° C., humidified 5% CO2 incubator for one hour. Unbound cells and PGG β-glucan were removed by washing with warmed PBS, and bound cells were subsequently fixed in 1% formaldehyde at room temp for 15 minutes. Cells were blocked with FCR blocking agent prior to staining with BFD IV and anti-iC3b monoclonal antibody for 30 minutes at 4° C., and followed by the secondary staining antibodies Cy5-conjugated goat anti-mouse IgM and Cy3-conjugated goat anti-mouse IgG at 4° C. for 30 minutes. Cells were penneabilized with 0.1% ice-cold TritonX-100 for three minutes on ice, stained with DAPI on ice for five minutes before mounting onto slides. Images were analyzed and acquired with Olympus FluoView 1000 IX2 Inverted confocal microscope. Images were adjusted equally in Adobe Photoshop (Adobe Systems Inc., San Jose, Calif.).
substance,measurement,setting,value
"β(1,6)-[poly-1,3)-D-glucopyranosyl]-poly-β(1,3)-D-glucopyranose [PGG β-glucan]",Binding in the presence of heat inactivated (HI) serum,"human monocytes; 10% HI serum vs regular serum, 100 μg/mL",abrogated
same,Average percentage of binding inhibition in HI serum,"human monocytes; based on MFI, five donors",90%
same,Range of percentage of binding inhibition in HI serum,"human monocytes; based on MFI, five donors",81-100%
same,iC3b staining on cells incubated with β-glucan vs serum alone,"human neutrophils; 200 μg/mL, 10% serum, 37° C., two hours",increased staining of iC3b
same,Co-localization of bound glucan and iC3b (confocal microscopy),human neutrophils; BfD IV and anti-iC3b double staining,co-localized
